According to patent US20220323427A1, “SOMATOSTATIN RECEPTOR TYPE 5 AGONIST FOR THE TREATMENT OF HYPERINSULINISM” (Crinetics Pharmaceuticals, Inc., priority 2021, published 2022):

Key:
[1] = Exposure in non-fasted male rats; details: Sprague Dawley, rat, in vivo, oral, 10 mg/kg
major human CYP enzymes = assay: CYP inhibition or induction; type: in vitro ADME; details: including CYP2C9 and CYP3A4
[2] = system: sulfonylurea-induced hyperinsulinism; assay: Sulfonylurea (glibenclamide) challenge and euglycemic clamp, SAD; type: in vivo, human; details: single dose 30 mg or 60 mg
Method: SAD 1b/Part 1b: ascending single dose, randomized, placebo-controlled, double-blind; up to 3 cohorts, n=8/cohort; subjects in SAD 1b will undergo an SU challenge and euglycemic clamp procedure. Doses are 30 mg or 60 mg.
In SAD 1b and the MAD, subjects will undergo an SU challenge in the setting of a euglycemic clamp procedure. Sulfonylurea drugs act to close KATP channel of the pancreatic β-cell, stimulating endogenous insulin secretion. Given that the majority (50%) of patients with congenital HI harbor a mutation in the KATP channel, the SU challenge models this genetic form of HI in healthy volunteers. Intravenous glucose will be used during the euglycemic clamp to maintain glucose within a target range. […] The SU challenge cohorts in SAD 1b will assess the ability of a single dose of Compound 1 to reduce or prevent SU-induced glucose lowering as measured by reduced IV glucose infusion (reduced glucose “support”). IV glucose requirements will be assessed as a glucose infusion rate, or GIR (mg dextrose/kg body weight/minute). In the MAD, the durability of the Compound 1 effect will be measured by assessing the GIR required to maintain euglycemia during the SU challenge after 10 days of Compound 1 dosing compared to the baseline SU challenge in the absence (predose) of Compound 1. […]

[3] = target: T1, human somatostatin receptor subtype 5 (Homo sapiens, UniProt P35346); assay: cAMP assay for SST5R; type: cell-based
T1 construct: expressed in transfected cells
T1 sequence (P35346 whole entry): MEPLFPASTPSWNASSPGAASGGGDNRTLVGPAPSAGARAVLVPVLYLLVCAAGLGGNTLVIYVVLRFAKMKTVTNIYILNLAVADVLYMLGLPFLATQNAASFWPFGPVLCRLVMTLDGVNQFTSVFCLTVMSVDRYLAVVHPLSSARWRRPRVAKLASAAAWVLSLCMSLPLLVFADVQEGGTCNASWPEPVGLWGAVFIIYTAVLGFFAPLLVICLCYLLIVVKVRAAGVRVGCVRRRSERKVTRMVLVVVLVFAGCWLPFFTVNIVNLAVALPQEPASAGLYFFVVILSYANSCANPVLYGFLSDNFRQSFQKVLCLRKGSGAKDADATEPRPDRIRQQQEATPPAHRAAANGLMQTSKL
Excerpt: General overview: All five SSTR subtypes are Gi coupled G-protein coupled receptors (GPCRs) that lead to decreases in intracellular cyclic AMP (cAMP) when activated by an agonist. Therefore, measurement of intracellular cAMP levels can be used to assess whether compounds of the invention are agonists of SSTR subtypes (John Kelly, Troy Stevens, W. Joseph Thompson, and Roland Seifert, Current Protocols in Pharmacology, 2005, 2.2.1-2.2). One example of an intracellular cAMP assay is described below.
Four days prior to the assay, 2,000 Chinese hamster ovary cells (CHO-K1, ATCC #CCL-61) stably expressing the human somatostatin receptor subtype 5 are plated in each well of a 96-well tissue culture-treated plate in Ham's F12 growth media (ThermoFisher #10-080-CM) supplemented with 10% donor bovine serum (Gemini Bio-Products #100-506), 100 U/mL penicillin; 100 μg/mL streptomycin; 2 mM L-glutamine (Gemini Bio-Products #400-110) and 0.25 mg/mL G418 Sulfate (GoldBio #108321-42-2). The cells are cultured at 37° C., 5% CO2 and 95% humidity. […] The time-resolved fluorescent signal is read with a Tecan M1000Pro multiplate reader. The intracellular cAMP concentrations are calculated by regression to a standard curve and are plotted vs. the concentration of the compounds of the invention and the EC50 of the compounds are calculated using standard methods. […]

AUC [1]: 590 ng·h/mL
Cmax [1]: 45 ng/mL
Fold selectivity for SST5 vs SST2 ([3]; human SST5 vs human SST2, cAMP): >500 fold
EC50 ([3]; inhibition of cAMP, CHO-K1 cells expressing human SST5, read-out: SST5 potency (EC50; nM)): < 1 nM
SMILES: C[C@H](NC(=O)c1cnc(C#N)c(-c2cc(F)cc(F)c2)c1N1CC[C@H](N)C1)C(F)(F)F [Compound 1, 4-[(3S)-3-aminopyrrolidin-1-yl]-6-cyano-5-(3,5-difluorophenyl)-N-[(2S)-1,1,1-trifluoropropan-2-yl]pyridine-3-carboxamide]
Potential for inhibition or induction of the major human CYP enzymes (major human CYP enzymes): little or no potential for inhibition or induction
Effect on sulfonylurea-induced hyperinsulinism [2]: reversed sulfonylurea-induced hyperinsulinism
Need for IV glucose support (glucose infusion rate) [2]: eliminating the need for IV glucose support
